These results are taken from ChEMBL document CHEMBL1154859, “Structure of aldehyde reductase in ternary complex with a 5-arylidene-2,4-thiazolidinedione aldose reductase inhibitor” (Eur J Med Chem, 2010).

Assay [1] has as its target T1, Aldo-keto reductase family 1 member A1 (Sus scrofa, UniProt P50578).
T1 sequence (P50578 whole entry): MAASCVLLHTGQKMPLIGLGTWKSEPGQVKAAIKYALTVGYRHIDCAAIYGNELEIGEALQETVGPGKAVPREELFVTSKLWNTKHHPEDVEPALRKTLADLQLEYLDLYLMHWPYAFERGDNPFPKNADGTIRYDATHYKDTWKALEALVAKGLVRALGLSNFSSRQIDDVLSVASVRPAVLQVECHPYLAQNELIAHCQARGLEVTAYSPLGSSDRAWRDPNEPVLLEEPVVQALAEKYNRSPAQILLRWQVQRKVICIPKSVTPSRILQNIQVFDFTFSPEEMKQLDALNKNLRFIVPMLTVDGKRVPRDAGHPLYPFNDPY
Put plainly: Inhibition of pig ALR1 assessed as decrease in NADPH absorbance by spectrophotometry.

A short description of assay [2]: Ratio of IC50 for pig ALR1 to IC50 for calf ALR2.

For `COc1ccc(/C=C2\SC(=O)N(CC(=O)O)C2=O)cc1O`, the IC50 in assay [1] was 37 µM. Also, the Ratio IC50 in assay [2] was 56.

Broadly, the IC50 is the concentration needed to halve the response being measured.
